From patent US8445492B2, “Method for inhibiting growth of cancer cells and cell telomere and diseases of cell proliferation by using heteroannelated anthraquinone derivative compounds” (National Defense Medical Center, priority 2008, dated 2013)

Legend:
Type in all cases: cell-based
MALME-3M = assay: NCI DTP in-vitro dose response, Melanoma
M14 = assay: NCI DTP in-vitro dose response, Melanoma
LOX IMVI = assay: NCI DTP in-vitro dose response, Melanoma
SK-MEL-2 = assay: NCI DTP in-vitro dose response, Melanoma
UACC-62 = assay: NCI DTP in-vitro dose response, Melanoma
SK-MEL-28 = assay: NCI DTP in-vitro dose response, Melanoma
UACC-257 = assay: NCI DTP in-vitro dose response, Melanoma
SK-MEL-5 = assay: NCI DTP in-vitro dose response, Melanoma
OVCAR-8 = assay: NCI DTP in-vitro dose response, Ovarian Cancer
OVCAR-4 = assay: NCI DTP in-vitro dose response, Ovarian Cancer
IGROV1 = assay: NCI DTP in-vitro dose response, Ovarian Cancer
SK-OV-3 = assay: NCI DTP in-vitro dose response, Ovarian Cancer
OVCAR-5 = assay: NCI DTP in-vitro dose response, Ovarian Cancer
OVCAR-3 = assay: NCI DTP in-vitro dose response, Ovarian Cancer

## O=C1c2ccccc2C(=O)c2c1ccc1nccnc21 [TABLE 5-5]
MALME-3M
  CC50: 70.8 µM
  TGI: 2.07E−5
MALME-3M; Log10 Concentration −4.0
  Percent Growth: −64%
MALME-3M; Log10 Concentration −5.0
  Percent Growth: 30%
MALME-3M; Log10 Concentration −6.0
  Percent Growth: 88%
MALME-3M; Log10 Concentration −7.0
  Percent Growth: 91%
MALME-3M; Log10 Concentration −8.0
  Percent Growth: 97%
MALME-3M; read-out: GI50
  GI50: 4.48 µM
M14
  CC50: > 100 µM
  TGI: >1.00E−4
M14; Log10 Concentration −5.0
  Percent Growth: 34%
M14; Log10 Concentration −6.0
  Percent Growth: 89%
M14; Log10 Concentration −7.0
  Percent Growth: 91%
M14; Log10 Concentration −8.0
  Percent Growth: 95%
M14; read-out: GI50
  GI50: 5.14 µM
LOX IMVI
  CC50: > 100 µM
  TGI: 3.89E−5
LOX IMVI; Log10 Concentration −4.0
  Percent Growth: −22%
LOX IMVI; Log10 Concentration −5.0
  Percent Growth: 31%
LOX IMVI; Log10 Concentration −6.0
  Percent Growth: 81%
LOX IMVI; Log10 Concentration −7.0
  Percent Growth: 85%
LOX IMVI; Log10 Concentration −8.0
  Percent Growth: 90%
LOX IMVI; read-out: GI50
  GI50: 4.2 µM
SK-MEL-2
  CC50: > 100 µM
  TGI: 5.59E−5
SK-MEL-2; Log10 Concentration −4.0
  Percent Growth: −20%
SK-MEL-2; Log10 Concentration −5.0
  Percent Growth: 58%
SK-MEL-2; Log10 Concentration −6.0
  Percent Growth: 102%
SK-MEL-2; Log10 Concentration −7.0
  Percent Growth: 85%
SK-MEL-2; Log10 Concentration −8.0
  Percent Growth: 97%
SK-MEL-2; read-out: GI50
  GI50: 12.7 µM
UACC-62
  CC50: > 100 µM
  TGI: 5.61E−5
UACC-62; Log10 Concentration −4.0
  Percent Growth: −20%
UACC-62; Log10 Concentration −5.0
  Percent Growth: 60%
UACC-62; Log10 Concentration −6.0
  Percent Growth: 87%
UACC-62; Log10 Concentration −7.0
  Percent Growth: 84%
UACC-62; Log10 Concentration −8.0
  Percent Growth: 92%
UACC-62; read-out: GI50
  GI50: 13.3 µM
SK-MEL-28
  CC50: > 100 µM
  TGI: 9.11E−5
SK-MEL-28; Log10 Concentration −4.0
  Percent Growth: −3%
SK-MEL-28; Log10 Concentration −5.0
  Percent Growth: 75%
SK-MEL-28; Log10 Concentration −6.0
  Percent Growth: 104%
SK-MEL-28; Log10 Concentration −7.0
  Percent Growth: 101%
SK-MEL-28; Log10 Concentration −8.0
  Percent Growth: 100%
SK-MEL-28; read-out: GI50
  GI50: 21 µM
UACC-257
  CC50: > 100 µM
  TGI: 6.83E−5
UACC-257; Log10 Concentration −4.0
  Percent Growth: −11%
UACC-257; Log10 Concentration −5.0
  Percent Growth: 58%
UACC-257; Log10 Concentration −6.0
  Percent Growth: 99%
UACC-257; Log10 Concentration −7.0
  Percent Growth: 88%
UACC-257; Log10 Concentration −8.0
  Percent Growth: 95%
UACC-257; read-out: GI50
  GI50: 13 µM
SK-MEL-5
  CC50: 44.4 µM
  TGI: 1.71E−5
SK-MEL-5; Log10 Concentration −4.0
  Percent Growth: −92%
SK-MEL-5; Log10 Concentration −5.0
  Percent Growth: 28%
SK-MEL-5; Log10 Concentration −6.0
  Percent Growth: 82%
SK-MEL-5; Log10 Concentration −7.0
  Percent Growth: 90%
SK-MEL-5; Log10 Concentration −8.0
  Percent Growth: 90%
SK-MEL-5; read-out: GI50
  GI50: 3.93 µM

## O=C1c2ccccc2C(=O)c2c1ccc1nccnc21 [TABLE 5-6]
OVCAR-8
  CC50: > 100 µM
  TGI: >1.00E−4
OVCAR-8; Log10 Concentration −4.0
  Percent Growth: 13%
OVCAR-8; Log10 Concentration −5.0
  Percent Growth: 36%
OVCAR-8; Log10 Concentration −6.0
  Percent Growth: 83%
OVCAR-8; Log10 Concentration −7.0
  Percent Growth: 89%
OVCAR-8; Log10 Concentration −8.0
  Percent Growth: 97%
OVCAR-8; read-out: GI50
  GI50: 5.07 µM
OVCAR-4
  CC50: > 100 µM
  TGI: >1.00E−4
OVCAR-4; Log10 Concentration −4.0
  Percent Growth: 3%
OVCAR-4; Log10 Concentration −5.0
  Percent Growth: 51%
OVCAR-4; Log10 Concentration −6.0
  Percent Growth: 74%
OVCAR-4; Log10 Concentration −7.0
  Percent Growth: 91%
OVCAR-4; Log10 Concentration −8.0
  Percent Growth: 102%
OVCAR-4; read-out: GI50
  GI50: 10.5 µM
IGROV1
  CC50: > 100 µM
  GI50: 2.55 µM
  TGI: 3.59E−5
IGROV1; Log10 Concentration −4.0
  Percent Growth: −27%
IGROV1; Log10 Concentration −5.0
  Percent Growth: 33%
IGROV1; Log10 Concentration −6.0
  Percent Growth: 61%
IGROV1; Log10 Concentration −7.0
  Percent Growth: 74%
IGROV1; Log10 Concentration −8.0
  Percent Growth: 90%
SK-OV-3
  CC50: > 100 µM
  TGI: >1.00E−4
SK-OV-3; Log10 Concentration −4.0
  Percent Growth: 8%
SK-OV-3; Log10 Concentration −5.0
  Percent Growth: 44%
SK-OV-3; Log10 Concentration −6.0
  Percent Growth: 79%
SK-OV-3; Log10 Concentration −7.0
  Percent Growth: 89%
SK-OV-3; Log10 Concentration −8.0
  Percent Growth: 91%
SK-OV-3; read-out: GI50
  GI50: 6.95 µM
OVCAR-5
  CC50: > 100 µM
  TGI: >1.00E−4
OVCAR-5; Log10 Concentration −4.0
  Percent Growth: 19%
OVCAR-5; Log10 Concentration −5.0
  Percent Growth: 77%
OVCAR-5; Log10 Concentration −6.0
  Percent Growth: 98%
OVCAR-5; Log10 Concentration −7.0
  Percent Growth: 90%
OVCAR-5; Log10 Concentration −8.0
  Percent Growth: 97%
OVCAR-5; read-out: GI50
  GI50: 59.3 µM
OVCAR-3
  CC50: > 100 µM
  TGI: 1.25E−5
OVCAR-3; Log10 Concentration −4.0
  Percent Growth: −42%
OVCAR-3; Log10 Concentration −5.0
  Percent Growth: 4%
OVCAR-3; Log10 Concentration −6.0
  Percent Growth: 77%
OVCAR-3; Log10 Concentration −7.0
  Percent Growth: 95%
OVCAR-3; Log10 Concentration −8.0
  Percent Growth: 104%
OVCAR-3; read-out: GI50
  GI50: 2.34 µM
